Experimental data taken from patent US10513521B2, “Compositions and methods for inhibiting BMP” (The Brigham and Women's Hospital, Inc., priority 2014, dated 2019).

Columns and labels:
ALK5 = biological target: T1, ALK5 (Homo sapiens, UniProt P36897); assay: TR-FRET enzymatic ALK kinase assay, ALK5
T1 sequence (P36897 34-503): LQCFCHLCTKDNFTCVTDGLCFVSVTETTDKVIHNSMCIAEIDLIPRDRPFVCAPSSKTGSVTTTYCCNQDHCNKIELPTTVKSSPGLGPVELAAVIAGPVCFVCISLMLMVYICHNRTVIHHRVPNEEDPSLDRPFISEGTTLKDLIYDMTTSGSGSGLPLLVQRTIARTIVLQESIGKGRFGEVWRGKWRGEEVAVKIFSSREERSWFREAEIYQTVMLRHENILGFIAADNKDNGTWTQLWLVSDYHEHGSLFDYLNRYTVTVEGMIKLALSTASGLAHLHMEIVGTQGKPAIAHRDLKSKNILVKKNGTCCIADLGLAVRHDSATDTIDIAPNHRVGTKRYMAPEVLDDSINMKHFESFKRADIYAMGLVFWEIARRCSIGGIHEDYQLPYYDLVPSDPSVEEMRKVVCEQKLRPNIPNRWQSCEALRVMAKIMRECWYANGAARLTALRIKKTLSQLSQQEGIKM
Description: Six ALK kinase enzyme assays were developed for determination of compound activities on ALK1, ALK2, ALK3, ALK4, ALK5 and ALK6.
(§1) Briefly, the ALKs enzymatic assay was initiated by dispense 2.5 μl enzyme in 1× kinase reaction buffer. The assay plate was then added with compounds followed by incubation at room temperature for 10 minutes. Then 2.5 μl/well substrate was added.

ALK3 = ALK3 (Homo sapiens, UniProt P36894); assay: TR-FRET enzymatic ALK kinase assay, ALK3
Sequence of ALK3 (P36894 24-532): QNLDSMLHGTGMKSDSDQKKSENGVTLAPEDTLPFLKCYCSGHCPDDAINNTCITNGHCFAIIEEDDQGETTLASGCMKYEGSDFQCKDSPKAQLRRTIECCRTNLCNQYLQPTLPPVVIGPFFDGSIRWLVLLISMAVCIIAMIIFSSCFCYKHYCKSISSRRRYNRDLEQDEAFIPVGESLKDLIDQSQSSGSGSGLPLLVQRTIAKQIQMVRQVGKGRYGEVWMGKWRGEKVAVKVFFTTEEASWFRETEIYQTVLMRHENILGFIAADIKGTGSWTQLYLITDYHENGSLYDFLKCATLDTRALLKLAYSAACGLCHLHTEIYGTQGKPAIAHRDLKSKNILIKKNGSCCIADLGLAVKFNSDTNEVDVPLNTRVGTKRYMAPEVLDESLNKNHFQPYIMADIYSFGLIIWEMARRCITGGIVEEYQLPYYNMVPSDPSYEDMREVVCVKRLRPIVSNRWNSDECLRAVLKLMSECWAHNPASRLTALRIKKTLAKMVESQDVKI
Description: as §1

ALK6 = ALK6 (Homo sapiens, UniProt O00238); assay: TR-FRET enzymatic ALK kinase assay, ALK6
Sequence of ALK6 (O00238 14-502): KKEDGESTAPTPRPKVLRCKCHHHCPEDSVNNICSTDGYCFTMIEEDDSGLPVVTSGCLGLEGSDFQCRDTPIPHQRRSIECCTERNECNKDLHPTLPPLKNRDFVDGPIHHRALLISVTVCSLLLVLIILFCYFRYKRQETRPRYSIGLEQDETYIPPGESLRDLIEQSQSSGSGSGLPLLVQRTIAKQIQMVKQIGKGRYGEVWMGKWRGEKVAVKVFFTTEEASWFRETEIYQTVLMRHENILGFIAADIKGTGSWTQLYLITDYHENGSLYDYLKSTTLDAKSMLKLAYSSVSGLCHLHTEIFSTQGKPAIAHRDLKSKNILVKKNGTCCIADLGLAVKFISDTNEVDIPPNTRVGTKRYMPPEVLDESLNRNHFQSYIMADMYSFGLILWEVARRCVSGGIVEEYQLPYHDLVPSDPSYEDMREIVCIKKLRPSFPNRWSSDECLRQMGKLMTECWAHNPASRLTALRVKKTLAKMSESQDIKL
Description: as §1

ALK4 = biological target: T2, ALK4 (Homo sapiens, UniProt P36896); assay: TR-FRET enzymatic ALK kinase assay, ALK4
T2 sequence (P36896 24-505): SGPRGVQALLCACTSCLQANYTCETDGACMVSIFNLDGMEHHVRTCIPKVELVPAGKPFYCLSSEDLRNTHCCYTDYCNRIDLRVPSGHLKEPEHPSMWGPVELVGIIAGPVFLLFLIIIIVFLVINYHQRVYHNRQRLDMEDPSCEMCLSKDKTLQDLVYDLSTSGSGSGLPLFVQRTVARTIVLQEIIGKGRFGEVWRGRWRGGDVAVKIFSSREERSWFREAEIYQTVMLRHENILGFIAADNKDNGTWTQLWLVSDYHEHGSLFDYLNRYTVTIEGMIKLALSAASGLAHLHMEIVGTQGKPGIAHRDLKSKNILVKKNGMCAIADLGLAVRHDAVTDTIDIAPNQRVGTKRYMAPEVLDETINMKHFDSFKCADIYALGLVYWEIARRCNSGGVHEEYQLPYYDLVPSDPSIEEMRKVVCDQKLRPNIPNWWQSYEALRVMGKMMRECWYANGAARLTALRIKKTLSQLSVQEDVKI
Description: as §1

ALK1 = ALK1 (Homo sapiens, UniProt P37023); assay: TR-FRET enzymatic ALK kinase assay, ALK1
Sequence of ALK1 (P37023 22-503): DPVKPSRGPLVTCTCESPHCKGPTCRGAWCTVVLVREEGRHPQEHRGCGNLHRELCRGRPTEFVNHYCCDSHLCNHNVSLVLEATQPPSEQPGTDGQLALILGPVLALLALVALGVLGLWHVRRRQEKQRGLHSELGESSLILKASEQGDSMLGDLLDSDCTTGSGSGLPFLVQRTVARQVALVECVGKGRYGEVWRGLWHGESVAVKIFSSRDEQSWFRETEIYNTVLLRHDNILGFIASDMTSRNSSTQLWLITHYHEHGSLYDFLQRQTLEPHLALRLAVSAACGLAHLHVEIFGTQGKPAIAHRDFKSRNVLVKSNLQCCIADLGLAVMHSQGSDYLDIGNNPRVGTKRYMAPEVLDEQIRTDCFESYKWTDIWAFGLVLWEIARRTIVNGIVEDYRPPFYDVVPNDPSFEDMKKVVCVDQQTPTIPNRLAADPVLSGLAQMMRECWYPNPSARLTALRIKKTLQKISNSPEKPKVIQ
Description: as §1

ALK2 = biological target: T3, ALK2 (Homo sapiens, UniProt Q04771); assay: TR-FRET enzymatic ALK kinase assay, ALK2
T3 sequence (Q04771 21-509): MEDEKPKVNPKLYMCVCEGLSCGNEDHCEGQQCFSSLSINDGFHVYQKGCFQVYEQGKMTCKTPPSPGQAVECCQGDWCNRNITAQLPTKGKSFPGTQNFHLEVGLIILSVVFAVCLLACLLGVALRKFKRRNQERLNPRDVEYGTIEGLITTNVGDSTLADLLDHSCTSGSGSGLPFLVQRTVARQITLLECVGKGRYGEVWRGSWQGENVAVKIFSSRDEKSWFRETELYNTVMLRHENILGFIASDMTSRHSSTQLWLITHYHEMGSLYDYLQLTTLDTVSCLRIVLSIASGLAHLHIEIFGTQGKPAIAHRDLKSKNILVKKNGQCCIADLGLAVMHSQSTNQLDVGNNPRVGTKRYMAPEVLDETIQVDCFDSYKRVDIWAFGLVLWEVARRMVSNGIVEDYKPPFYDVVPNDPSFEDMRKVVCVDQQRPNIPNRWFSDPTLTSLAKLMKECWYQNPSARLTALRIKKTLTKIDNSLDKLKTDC
Description: as §1

Compound | IC50 (ALK5) [nM] | IC50 (ALK3) [nM] | IC50 (ALK6) [nM] | IC50 (ALK4) [nM] | IC50 (ALK1) [nM] | IC50 (ALK2) [nM]
NC(c1cccc(-c2cnn3cc(-c4ccc(OC5(CN6CCOCC6)CC5)cc4)cnc23)c1)C(F)(F)F (stereo not drawn) [Compound 181, 2,2,2-trifluoro-1-(3-(6-(4-(1-(morpholinomethyl)cyclopropoxy)phenyl)pyrazolo[1,5-a]pyrimidin-3-yl)phenyl)ethanamine] | > 10000 | 3300 | > 10000 | > 10000 | 2000 | 70
NC(c1cccc(-c2cnn3cc(-c4ccc(OC5(CN6CCC(O)C6)CC5)cc4)cnc23)c1)C(F)(F)F (stereo not drawn) [Compound 182, 1-((1-(4-(3-(3-(1-amino-2,2,2-trifluoroethyl)phenyl)pyrazolo[1,5-a]pyrimidin-6-yl)phenoxy)cyclopropyl)methyl)pyrrolidin-3-ol] | > 10000 | 4900 | > 10000 | > 10000 | 2000 | 120
C[S+](=O)([O-])c1cccc(-c2cnn3cc(-c4ccc(OC5(CN6C7CCC6CC7)CC5)cc4)cnc23)c1 [Compound 183, 6-(4-(1-(7-azabicyclo[2.2.1]heptan-7-ylmethyl)cyclopropoxy)phenyl)-3-(3-(methylsulfonyl)phenyl)pyrazolo[1,5-a]pyrimidine] | > 10000 | 1900 | > 10000 | > 10000 | 260 | 20
C[S+](=O)([O-])c1cccc(-c2cnn3cc(-c4ccc(OC5(CN6CCC7(CC6)CNC7)CC5)cc4)cnc23)c1 [Compound 184, 6-(4-(1-(2,7-diazaspiro[3.5]nonan-7-ylmethyl)cyclopropoxy)phenyl)-3-(3-(methylsulfonyl)phenyl)pyrazolo[1,5-a]pyrimidine] | > 10000 | 2300 | > 10000 | > 10000 | 320 | 23
C[S+](=O)([O-])c1cccc(-c2cnn3cc(-c4ccc(OC5(CN6CCCC(O)C6)CC5)cc4)cnc23)c1 (stereo not drawn) [Compound 186, 1-((1-(4-(3-(3-(methylsulfonyl)phenyl)pyrazolo[1,5-a]pyrimidin-6-yl)phenoxy)cyclopropyl)methyl)piperidin-3-ol] | > 10000 | 500 | > 10000 | > 10000 | 270 | 20
CC(N)c1ccc(-c2cnc3c(-c4cccc([S+](C)(=O)[O-])c4)cnn3c2)cc1 (stereo not drawn) [Compound 187, 1-(4-(3-(3-(methylsulfonyl)phenyl)pyrazolo[1,5-a]pyrimidin-6-yl)phenyl)ethanamine] | > 10000 | > 10000 | > 10000 | > 10000 | 430 | 33
CC(N)c1ccc(-c2cnc3c(-c4cccc(C(C)O)c4)cnn3c2)cc1 (stereo not drawn) [Compound 188, 1-(3-(6-(4-(1-aminoethyl)phenyl)pyrazolo[1,5-a]pyrimidin-3-yl)phenyl)ethanol] | > 10000 | 4700 | 8100 | 4100 | 970 | 73
CS(=O)(=O)c1cccc(-c2cnn3cc(-c4ccc(C5(N)CC5)cc4)cnc23)c1 [Compound 190, 1-(4-(3-(3-(methylsulfonyl)phenyl)pyrazolo[1,5-a]pyrimidin-6-yl)phenyl)cyclopropanamine] | > 10000 | 2500 | > 10000 | > 10000 | 460 | 44
CC(O)c1cccc(-c2cnn3cc(-c4ccc(C5(N)CC5)cc4)cnc23)c1 (stereo not drawn) [Compound 191, 1-(3-(6-(4-(1-aminocyclopropyl)phenyl)pyrazolo[1,5-a]pyrimidin-3-yl)phenyl)ethanol] | > 10000 | 5400 | > 10000 | > 10000 | 1500 | 120
